Experiments:
Assay type in all cases: in vivo
corn (Zea mays) = assay: Test A postemergence; details: Zea mays, post-emergence, 240 h, 125 g ai/ha, postemergence; visual injury after approximately 10 d; 0 to 100 scale (0 no effect, 100 complete control)
How it was run: (§1)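 Preemergence soil spray on seeded pots or post-emergence spray on 1–2 leaf plants, in loam–sand blend. Greenhouse ~10 d. Visual rating 0–100 against untreated plants.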

Kochia (Kochia scoparia) [1] = assay: Test A postemergence; details: Bassia scoparia, post-emergence, 240 h, 125 g ai/ha, postemergence; visual injury after approximately 10 d; 0 to 100 scale (0 no effect, 100 complete control); read-out: Plant response rating, Kochia
How it was run: as §1

[2] = test system: pigweed (Amaranthus retroflexus); assay: Test A postemergence; details: Amaranthus retroflexus, post-emergence, 240 h, 125 g ai/ha, postemergence; visual injury after approximately 10 d; 0 to 100 scale (0 no effect, 100 complete control); read-out: Plant response rating, Pigweed
How it was run: as §1

[3] = test system: ragweed (common ragweed, Ambrosia elatior); assay: Test A postemergence; details: Ambrosia artemisiifolia, post-emergence, 240 h, 125 g ai/ha, postemergence; visual injury after approximately 10 d; 0 to 100 scale (0 no effect, 100 complete control); read-out: Plant response rating, Ragweed
How it was run: as §1

[4] = test system: Galium (catchweed bedstraw, Galium aparine); assay: Test A postemergence; details: Galium, post-emergence, 240 h, 125 g ai/ha, postemergence; visual injury after approximately 10 d; 0 to 100 scale (0 no effect, 100 complete control); read-out: Plant response rating, Galium
How it was run: as §1

[5] = test system: barnyardgrass (Echinochloa crus-galli); assay: Test A postemergence; details: Echinochloa crus-galli, post-emergence, 240 h, 125 g ai/ha, postemergence; visual injury after approximately 10 d; 0 to 100 scale (0 no effect, 100 complete control); read-out: Plant response rating, Barnyardgrass
How it was run: as §1

[6] = test system: giant foxtail (Setaria faberii); assay: Test A postemergence; details: Setaria faberi, post-emergence, 240 h, 125 g ai/ha, postemergence; visual injury after approximately 10 d; 0 to 100 scale (0 no effect, 100 complete control); read-out: Plant response rating, Foxtail, Giant
How it was run: as §1

[7] = test system: wheat (Triticum aestivum); assay: Test A postemergence; details: Triticum aestivum, post-emergence, 240 h, 125 g ai/ha, postemergence; visual injury after approximately 10 d; 0 to 100 scale (0 no effect, 100 complete control); read-out: Plant response rating, Wheat
How it was run: as §1

[8] = test system: ryegrass, Italian (Italian ryegrass, Lolium multiflorum); assay: Test A postemergence; details: Lolium multiflorum, post-emergence, 240 h, 125 g ai/ha, postemergence; visual injury after approximately 10 d; 0 to 100 scale (0 no effect, 100 complete control); read-out: Plant response rating, Ryegrass, Italian
How it was run: as §1

[9] = test system: blackgrass (Alopecurus myosuroides); assay: Test A postemergence; details: Alopecurus myosuroides, post-emergence, 240 h, 125 g ai/ha, postemergence; visual injury after approximately 10 d; 0 to 100 scale (0 no effect, 100 complete control); read-out: Plant response rating, Blackgrass
How it was run: as §1

Kochia (Kochia scoparia) [10] = assay: Test A preemergence; details: Bassia scoparia, pre-emergence, 240 h, preemergence, read-out: Plant response rating, Kochia; for pest or weed control at 125 g/ha: 125 g ai/ha, visual rating after approx. 10 d, 0 to 100 scale where 0 is no effect and 100 is complete control; for pest or weed control at 500 g/ha: 500 g ai/ha, 0 to 100 scale, 0 = no effect, 100 = complete control
How it was run: as §1

[11] = test system: pigweed (Amaranthus retroflexus); assay: Test A preemergence; details: Amaranthus retroflexus, pre-emergence, 240 h, preemergence, read-out: Plant response rating, Pigweed; for pest or weed control at 125 g/ha: 125 g ai/ha, visual rating after approx. 10 d, 0 to 100 scale where 0 is no effect and 100 is complete control; for pest or weed control at 500 g/ha: 500 g ai/ha, 0 to 100 scale, 0 = no effect, 100 = complete control
[12] = test system: ragweed (common ragweed, Ambrosia elatior); assay: Test A preemergence; details: Ambrosia artemisiifolia, pre-emergence, 240 h, preemergence, read-out: Plant response rating, Ragweed; for pest or weed control at 125 g/ha: 125 g ai/ha, visual rating after approx. 10 d, 0 to 100 scale where 0 is no effect and 100 is complete control; for pest or weed control at 500 g/ha: 500 g ai/ha, 0 to 100 scale, 0 = no effect, 100 = complete control
How it was run: as §1

[13] = test system: barnyardgrass (Echinochloa crus-galli); assay: Test A preemergence; details: Echinochloa crus-galli, pre-emergence, 240 h, preemergence, read-out: Plant response rating, Barnyardgrass; for pest or weed control at 125 g/ha: 125 g ai/ha, visual rating after approx. 10 d, 0 to 100 scale where 0 is no effect and 100 is complete control; for pest or weed control at 500 g/ha: 500 g ai/ha, 0 to 100 scale, 0 = no effect, 100 = complete control
How it was run: as §1

[14] = test system: giant foxtail (Setaria faberii); assay: Test A preemergence; details: Setaria faberi, pre-emergence, 240 h, preemergence, read-out: Plant response rating, Foxtail, Giant; for pest or weed control at 125 g/ha: 125 g ai/ha, visual rating after approx. 10 d, 0 to 100 scale where 0 is no effect and 100 is complete control; for pest or weed control at 500 g/ha: 500 g ai/ha, 0 to 100 scale, 0 = no effect, 100 = complete control
How it was run: as §1

[15] = test system: ryegrass, Italian (Italian ryegrass, Lolium multiflorum); assay: Test A preemergence; details: Lolium multiflorum, pre-emergence, 240 h, preemergence, read-out: Plant response rating, Ryegrass, Italian; for pest or weed control at 125 g/ha: 125 g ai/ha, visual rating after approx. 10 d, 0 to 100 scale where 0 is no effect and 100 is complete control; for pest or weed control at 500 g/ha: 500 g ai/ha, 0 to 100 scale, 0 = no effect, 100 = complete control
How it was run: as §1

Row | SMILES | Corn plant response rating (crop injury, 0 = no effect, 100 = complete kill) at 125 g/ha (corn (Zea mays)) | pest or weed control at 125 g/ha (Kochia (Kochia scoparia) [1]) | pest or weed control at 125 g/ha [2] | pest or weed control at 125 g/ha [3] | pest or weed control at 125 g/ha [4] | pest or weed control at 125 g/ha [5] | pest or weed control at 125 g/ha [6] | plant injury at 125 g/ha [7] | pest or weed control at 125 g/ha [8] | pest or weed control at 125 g/ha [9] | pest or weed control at 125 g/ha (Kochia (Kochia scoparia) [10]) | pest or weed control at 500 g/ha (Kochia (Kochia scoparia) [10]) | pest or weed control at 125 g/ha [11] | pest or weed control at 500 g/ha [11] | pest or weed control at 125 g/ha [12] | pest or weed control at 500 g/ha [12] | pest or weed control at 125 g/ha [13] | pest or weed control at 500 g/ha [13] | pest or weed control at 125 g/ha [14] | pest or weed control at 500 g/ha [14] | further results
1 | CN1C[C@H](c2ccc(C(F)(F)F)cc2)[C@@H](C(=O)Nc2ccccc2C2CC2)C1=O [Compound 747] | 0% | 20% | 30% | 0% | 60% | 40% | 70% | 0% | 0% | 30% | 60% | 80% | 50% | 50% | 20% | 0% | 0% | 70% | 90% | 90% | pest or weed control at 125 g/ha [15]: 0%; pest or weed control at 500 g/ha [15]: 60%
2 | O=C1NC[C@H](c2cccc(C(F)(F)F)c2)[C@H]1C(=O)Nc1ccccc1C1CC1 [Compound 748] | 0% | 0% | 0% | 0% | 0% | 40% | 0% | 0% | 0% | 0% | 0% | 0% | 0% | 0% | 0% | 0% | 0% | 30% | 40% | 90% | pest or weed control at 125 g/ha [15]: 0%; pest or weed control at 500 g/ha [15]: 0%
3 | O=C1NC[C@H](c2cscn2)[C@H]1C(=O)Nc1ccccc1F [Compound 752] | 0% | 40% | 0% | 20% | 70% | 60% | 50% | 0% | 20% | 0% | 60% | 70% | 20% | 40% | 40% | 60% | 30% | 90% | 90% | 90% | pest or weed control at 125 g/ha [15]: 20%; pest or weed control at 500 g/ha [15]: 30%
4 | O=C1NC[C@H](c2cccc3c2OC(F)(F)O3)[C@H]1C(=O)Nc1ccccc1F [Compound 754] | 0% | 0% | 0% | 0% | 0% | 60% | 60% | 0% | 0% | 0% | 0% | 0% | 0% | 0% | 0% | 0% | 80% | 100% | 70% | 90% | pest or weed control at 125 g/ha [15]: 0%; pest or weed control at 500 g/ha [15]: 0%
5 | O=C1NC[C@H](c2cc(F)c(F)c(F)c2)[C@H]1C(=O)Nc1ccc(F)c(F)c1F [Compound 756] | 50% | 20% | 0% | 20% | 50% | 90% | 80% | 30% | 40% | 0% | 70% | 70% | 40% | 70% | 0% | 30% | 100% | 100% | 100% | 100% | pest or weed control at 125 g/ha [15]: 30%; pest or weed control at 500 g/ha [15]: 70%
6 | CN1C[C@H](c2cc(F)c(F)c(F)c2)[C@@H](C(=O)Nc2ccc(F)c(F)c2F)C1=O [Compound 757] | 70% | 20% | 20% | 0% | 50% | 90% | 90% | 60% | 20% | 60% | 70% | 70% | 30% | 70% | 20% | 90% | 90% | 90% | 90% | 90% | pest or weed control at 125 g/ha [15]: 30%; pest or weed control at 500 g/ha [15]: 60%
